Bounds are passed on as bounds.

The subject of series [1] is HEK293. The experiment in a line: Cytotoxicity against HEK293 cells at 10 uM measured after 24 to 48 hrs by Cell-titer glo assay relative to control. Format: cell-based. Conditions: human, hek293, 10 µM, time 24-48 hrs.
A short description of series [2]: Cytotoxicity against hTERT cells at 10 uM measured after 24 to 48 hrs by Cell-titer glo assay relative to control. Format: cell-based. The following applies: human, time 24-48 hrs.
In series [3] the target is 3',5'-cyclic-AMP phosphodiesterase 4C (Homo sapiens) (UniProt Q08493). As to the kind of experiment: Inhibition of PDE4C1 (unknown origin) at 10 uM incubated for 60 mins followed by addition of binding agent and measured after 20 mins by Fluorescence Polarization assay relative to control. Conditions: time 80.0 min.
Chain of 3',5'-cyclic-AMP phosphodiesterase 4C (Homo sapiens) (Q08493 whole entry): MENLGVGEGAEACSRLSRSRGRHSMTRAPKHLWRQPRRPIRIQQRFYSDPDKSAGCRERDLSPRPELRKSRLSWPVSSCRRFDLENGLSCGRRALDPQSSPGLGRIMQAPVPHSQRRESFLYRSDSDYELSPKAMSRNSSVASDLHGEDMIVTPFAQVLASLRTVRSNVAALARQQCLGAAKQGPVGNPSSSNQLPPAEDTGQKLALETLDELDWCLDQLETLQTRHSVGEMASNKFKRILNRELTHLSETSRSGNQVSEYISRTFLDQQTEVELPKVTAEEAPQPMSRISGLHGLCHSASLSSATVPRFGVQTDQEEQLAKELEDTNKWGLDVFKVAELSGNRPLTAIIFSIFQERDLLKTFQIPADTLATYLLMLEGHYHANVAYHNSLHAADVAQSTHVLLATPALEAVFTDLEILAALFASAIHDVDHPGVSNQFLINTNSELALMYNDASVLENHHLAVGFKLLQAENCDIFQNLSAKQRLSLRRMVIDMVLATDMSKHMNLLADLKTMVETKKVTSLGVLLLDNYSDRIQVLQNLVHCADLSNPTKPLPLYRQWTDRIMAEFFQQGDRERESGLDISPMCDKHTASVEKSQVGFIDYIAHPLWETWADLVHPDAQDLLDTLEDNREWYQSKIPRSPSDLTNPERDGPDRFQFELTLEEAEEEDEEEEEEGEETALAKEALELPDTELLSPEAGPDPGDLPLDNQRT
The target in series [4] is T1, NAD-dependent protein deacetylase sirtuin-7 (Homo sapiens) (UniProt Q9NRC8).
T1 sequence (whole entry): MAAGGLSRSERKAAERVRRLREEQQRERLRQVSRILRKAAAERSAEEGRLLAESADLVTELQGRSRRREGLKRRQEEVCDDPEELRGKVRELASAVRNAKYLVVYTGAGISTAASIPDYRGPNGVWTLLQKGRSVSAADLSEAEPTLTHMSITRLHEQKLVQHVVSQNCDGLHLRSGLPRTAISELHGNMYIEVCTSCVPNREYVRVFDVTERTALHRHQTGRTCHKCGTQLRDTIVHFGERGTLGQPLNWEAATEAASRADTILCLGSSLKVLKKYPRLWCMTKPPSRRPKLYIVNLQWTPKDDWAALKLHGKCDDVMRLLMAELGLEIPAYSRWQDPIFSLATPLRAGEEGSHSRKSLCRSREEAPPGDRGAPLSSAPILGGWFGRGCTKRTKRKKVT
As to the kind of experiment: Inhibition of human recombinant SIRT7 at 10 uM incubated for 20 mins followed by mixing and measure after 30 mins by Luminescence assay relative to control. The following applies: time 50.0 min.

For series [5], the target named is Aurora kinase B (Homo sapiens) (UniProt Q96GD4). The experiment in a line: Inhibition of Aurora B kinase (unknown origin) at 10 uM in presence of ATP incubated for 30 min followed by addition of kinase glo-reagent measured after 20 mins by Luminescence based plate reader assay relative to control. Conditions: time 50.0 min.
Chain of Aurora kinase B (Homo sapiens) (Q96GD4 whole entry): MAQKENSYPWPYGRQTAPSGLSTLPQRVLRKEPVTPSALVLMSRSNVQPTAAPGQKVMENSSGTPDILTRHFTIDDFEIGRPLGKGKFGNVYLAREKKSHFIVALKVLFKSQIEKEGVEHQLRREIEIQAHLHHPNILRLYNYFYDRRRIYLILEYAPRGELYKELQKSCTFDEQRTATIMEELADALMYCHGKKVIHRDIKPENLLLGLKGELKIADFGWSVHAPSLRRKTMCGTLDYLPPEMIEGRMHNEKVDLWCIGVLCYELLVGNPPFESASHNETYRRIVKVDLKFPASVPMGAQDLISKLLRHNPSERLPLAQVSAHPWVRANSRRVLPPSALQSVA
Series [6] has as its target {'v': 'hERG (KCNH2)', 'o': 'p', 'q': 'Inhibition of human ERG at 10 uM'} (Homo sapiens, UniProt Q12809). As to the kind of experiment: Inhibition of human ERG at 10 uM relative to control.
In series [7] the test system is MCF7. As to the kind of experiment: Cytotoxicity against human MCF7 cells measured after 72 hrs by MTT assay. Format: functional, cell-based. The following applies: MCF7, 72 h. On the technique in general: Tetrazolium dyes change colour on reduction, which living cells bring about.
The subject of series [8] is CAKI-1. The experiment in a line: Cytotoxicity against human CAKI-1 cells measured after 72 hrs by MTT assay. Format: functional, cell-based. Conditions: CAKI-1, 72 h.
Series [9] deals with 786-0. The experiment in a line: Cytotoxicity against human 786-0 cells measured after 72 hrs by MTT assay. Conditions: 786-0, 72 h. Format: functional, cell-based.
Series [10] concerns IGROV-1. As to the kind of experiment: Cytotoxicity against human IGROV-1 cells measured after 72 hrs by MTT assay. Format: functional, cell-based. The following applies: IGROV-1, 72 h.
Series [11] relates to PC-3. As to the kind of experiment: Cytotoxicity against human PC-3 cells measured after 72 hrs by MTT assay. Format: functional, cell-based. The following applies: PC-3, 72 h.
The test system of series [12] is HCT-116. As to the kind of experiment: Cytotoxicity against human HCT-116 cells measured after 72 hrs by MTT assay. Format: functional, cell-based. The following applies: HCT-116, 72 h.
Series [13] deals with NCI-H69. As to the kind of experiment: Cytotoxicity against human NCI-H69 cells measured after 72 hrs by MTT assay. Format: functional, cell-based. The following applies: NCI-H69, 72 h.
Series [14] has as its system NCI-H82. As to the kind of experiment: Cytotoxicity against human NCI-H82 cells measured after 72 hrs by MTT assay. Format: functional, cell-based. Conditions: NCI-H82, 72 h.
Series [15] has as its system Rec1. As to the kind of experiment: Cytotoxicity against human REC1 cells measured after 72 hrs by MTT assay. Format: functional, cell-based. The following applies: Rec1, 72 h.
In series [16] the test system is TC-32. The experiment in a line: Cytotoxicity against human TC-32 cells measured after 72 hrs by MTT assay. Format: functional, cell-based. Conditions: TC-32, 72 h.
The subject of series [17] is SK-N-MC. The experiment in a line: Cytotoxicity against human SK-N-MC cells measured after 72 hrs by MTT assay. Format: functional, cell-based.
Series [18] is described as follows: Cytotoxicity against human 6647 cells measured after 72 hrs by MTT assay. Format: functional, cell-based. The following applies: Homo sapiens, 6647, 72 h.
Series [19] can be described thus: Cytotoxicity against human TC71 cells measured after 72 hrs by MTT assay. Conditions: TC-71, 72 h. Format: functional, cell-based.
In series [20] the test system is A673. As to the kind of experiment: Cytotoxicity against human A673 cells measured after 72 hrs by MTT assay. Format: functional, cell-based. Conditions: A673, 72 h.
For series [21], the system named is SK-N-MC. As to the kind of experiment: Cytotoxicity against human SK-N-MC cells at 30 uM assessed as cell proliferation rate measured after 72 hrs by MTT assay relative to control. Format: functional.
For series [22], the system named is HCT-116. As to the kind of experiment: Anticlonogenic activity against human HCT-116 cells assessed as reduction of cell survival at 0.5 to 20 uM measured after 10 days by SRB staining clonogenic survival assay. Conditions: dose 0.5-20 µM, time 10.0 day. Format: functional, cell-based. For orientation: Sulforhodamine B stains cellular protein and so reports cell mass.

The test system of series [23] is TC-71. The experiment in a line: Anticlonogenic activity against human TC71 cells assessed as reduction of cell survival at 0.5 to 20 uM measured after 10 days by SRB staining clonogenic survival assay. Format: functional, cell-based. Conditions: dose 0.5-20 µM, time 10.0 day.
For series [24], the target named is Histone deacetylase 4 (Homo sapiens) (UniProt P56524). As to the kind of experiment: Inhibition on human recombinant HDAC4 at 10 uM measured after 20 min by luminescence glo assay.
Chain of Histone deacetylase 4 (Homo sapiens) (P56524 whole entry): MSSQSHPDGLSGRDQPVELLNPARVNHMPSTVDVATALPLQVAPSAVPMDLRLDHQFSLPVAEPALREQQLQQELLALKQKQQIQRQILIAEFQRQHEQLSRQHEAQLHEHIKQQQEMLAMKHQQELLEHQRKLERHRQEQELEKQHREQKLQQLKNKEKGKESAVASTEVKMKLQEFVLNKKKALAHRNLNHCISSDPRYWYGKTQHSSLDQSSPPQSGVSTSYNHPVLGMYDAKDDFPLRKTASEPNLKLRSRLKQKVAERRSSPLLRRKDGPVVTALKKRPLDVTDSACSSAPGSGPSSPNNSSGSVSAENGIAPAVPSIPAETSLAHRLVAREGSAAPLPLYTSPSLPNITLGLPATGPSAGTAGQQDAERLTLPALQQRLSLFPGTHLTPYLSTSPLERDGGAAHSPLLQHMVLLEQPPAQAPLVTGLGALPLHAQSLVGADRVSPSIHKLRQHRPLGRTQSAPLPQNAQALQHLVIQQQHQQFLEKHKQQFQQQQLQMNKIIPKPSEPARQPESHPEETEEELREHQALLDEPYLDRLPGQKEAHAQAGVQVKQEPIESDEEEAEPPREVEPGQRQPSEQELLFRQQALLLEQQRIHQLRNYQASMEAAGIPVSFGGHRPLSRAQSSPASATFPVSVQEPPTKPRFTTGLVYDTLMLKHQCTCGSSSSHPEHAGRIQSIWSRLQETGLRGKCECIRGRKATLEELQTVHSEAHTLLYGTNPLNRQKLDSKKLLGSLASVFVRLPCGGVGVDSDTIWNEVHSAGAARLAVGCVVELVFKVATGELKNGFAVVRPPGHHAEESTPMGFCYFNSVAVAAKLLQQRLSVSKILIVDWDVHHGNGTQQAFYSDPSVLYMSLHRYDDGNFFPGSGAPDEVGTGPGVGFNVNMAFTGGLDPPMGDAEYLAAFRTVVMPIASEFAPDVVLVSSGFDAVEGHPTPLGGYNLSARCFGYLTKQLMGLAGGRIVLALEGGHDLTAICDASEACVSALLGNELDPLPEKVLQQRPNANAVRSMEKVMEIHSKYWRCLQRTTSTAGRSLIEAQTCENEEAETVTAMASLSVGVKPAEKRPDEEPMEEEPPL
The target in series [25] is T2, Protein deacetylase HDAC6 (Homo sapiens) (UniProt Q9UBN7).
T2 sequence (whole entry): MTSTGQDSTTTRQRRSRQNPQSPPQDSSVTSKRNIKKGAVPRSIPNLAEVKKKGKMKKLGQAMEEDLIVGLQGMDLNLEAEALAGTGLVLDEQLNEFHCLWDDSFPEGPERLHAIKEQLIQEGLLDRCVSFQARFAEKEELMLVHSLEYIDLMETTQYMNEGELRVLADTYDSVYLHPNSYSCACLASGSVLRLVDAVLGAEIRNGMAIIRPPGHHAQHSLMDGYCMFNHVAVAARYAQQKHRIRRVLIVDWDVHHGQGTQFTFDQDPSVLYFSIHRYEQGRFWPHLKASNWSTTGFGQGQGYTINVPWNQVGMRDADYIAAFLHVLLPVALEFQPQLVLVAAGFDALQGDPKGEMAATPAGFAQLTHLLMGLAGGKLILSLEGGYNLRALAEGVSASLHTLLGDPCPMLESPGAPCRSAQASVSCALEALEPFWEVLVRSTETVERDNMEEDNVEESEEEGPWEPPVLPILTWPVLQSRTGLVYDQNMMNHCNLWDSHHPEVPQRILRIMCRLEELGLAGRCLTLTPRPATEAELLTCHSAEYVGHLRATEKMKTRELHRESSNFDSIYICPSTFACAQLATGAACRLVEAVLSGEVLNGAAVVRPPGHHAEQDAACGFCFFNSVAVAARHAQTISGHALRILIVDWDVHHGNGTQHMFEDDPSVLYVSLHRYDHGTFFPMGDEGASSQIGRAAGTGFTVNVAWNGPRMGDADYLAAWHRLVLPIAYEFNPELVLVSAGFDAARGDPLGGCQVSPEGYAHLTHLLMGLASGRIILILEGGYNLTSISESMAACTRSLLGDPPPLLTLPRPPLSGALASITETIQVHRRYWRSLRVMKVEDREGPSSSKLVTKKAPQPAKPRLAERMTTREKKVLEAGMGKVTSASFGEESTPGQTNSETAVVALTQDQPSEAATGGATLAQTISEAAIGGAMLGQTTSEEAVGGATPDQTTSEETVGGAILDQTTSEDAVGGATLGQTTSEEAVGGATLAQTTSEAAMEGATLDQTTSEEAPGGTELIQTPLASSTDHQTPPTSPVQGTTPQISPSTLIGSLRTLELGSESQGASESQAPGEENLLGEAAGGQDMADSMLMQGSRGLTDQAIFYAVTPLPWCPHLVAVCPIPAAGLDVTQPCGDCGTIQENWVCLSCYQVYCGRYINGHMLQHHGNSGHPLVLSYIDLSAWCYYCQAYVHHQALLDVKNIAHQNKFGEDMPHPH
As to the kind of experiment: Inhibition on human recombinant HDAC6 at 10 uM measured after 20 min by luminescence glo assay.

Series [26] addresses T3, Histone deacetylase 8 (Homo sapiens) (UniProt Q9BY41).
T3 sequence (whole entry): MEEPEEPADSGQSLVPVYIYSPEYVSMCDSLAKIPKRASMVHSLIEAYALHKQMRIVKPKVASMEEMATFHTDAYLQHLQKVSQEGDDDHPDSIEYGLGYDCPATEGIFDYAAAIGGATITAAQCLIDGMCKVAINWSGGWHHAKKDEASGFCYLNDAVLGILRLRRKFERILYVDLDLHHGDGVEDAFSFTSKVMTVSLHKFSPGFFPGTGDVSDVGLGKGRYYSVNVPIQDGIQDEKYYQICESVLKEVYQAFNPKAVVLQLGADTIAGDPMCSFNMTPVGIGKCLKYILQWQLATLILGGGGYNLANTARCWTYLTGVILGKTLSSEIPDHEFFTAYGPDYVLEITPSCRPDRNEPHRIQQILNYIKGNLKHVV
As to the kind of experiment: Inhibition on human recombinant HDAC8 at 10 uM measured after 20 min by luminescence glo assay.

Series [27] has as its target Histone deacetylase 9 (Homo sapiens) (UniProt Q9UKV0). The experiment in a line: Inhibition on human recombinant HDAC9 at 10 uM measured after 20 min by luminescence glo assay.
In series [28] the test system is HCT-116. As to the kind of experiment: Cytotoxicity against human HCT-116 cells at 30 uM assessed as cell proliferation rate measured after 72 hrs by MTT assay relative to control. Format: functional.
The test system of series [29] is TC-32. The experiment in a line: Cytotoxicity against human TC-32 cells at 30 uM assessed as cell proliferation rate measured after 72 hrs by MTT assay relative to control. Format: functional.
Series [30] deals with 6647. The experiment in a line: Cytotoxicity against human 6647 cells at 30 uM assessed as cell proliferation rate measured after 72 hrs by MTT assay relative to control. Format: functional.
Series [31] has as its system TC-71. The experiment in a line: Cytotoxicity against human TC71 cells at 30 uM assessed as cell proliferation rate measured after 72 hrs by MTT assay relative to control. Format: functional.

Chain of {'v': 'hERG (KCNH2)', 'o': 'p', 'q': 'Inhibition of human ERG at 10 uM'} (Q12809 whole entry): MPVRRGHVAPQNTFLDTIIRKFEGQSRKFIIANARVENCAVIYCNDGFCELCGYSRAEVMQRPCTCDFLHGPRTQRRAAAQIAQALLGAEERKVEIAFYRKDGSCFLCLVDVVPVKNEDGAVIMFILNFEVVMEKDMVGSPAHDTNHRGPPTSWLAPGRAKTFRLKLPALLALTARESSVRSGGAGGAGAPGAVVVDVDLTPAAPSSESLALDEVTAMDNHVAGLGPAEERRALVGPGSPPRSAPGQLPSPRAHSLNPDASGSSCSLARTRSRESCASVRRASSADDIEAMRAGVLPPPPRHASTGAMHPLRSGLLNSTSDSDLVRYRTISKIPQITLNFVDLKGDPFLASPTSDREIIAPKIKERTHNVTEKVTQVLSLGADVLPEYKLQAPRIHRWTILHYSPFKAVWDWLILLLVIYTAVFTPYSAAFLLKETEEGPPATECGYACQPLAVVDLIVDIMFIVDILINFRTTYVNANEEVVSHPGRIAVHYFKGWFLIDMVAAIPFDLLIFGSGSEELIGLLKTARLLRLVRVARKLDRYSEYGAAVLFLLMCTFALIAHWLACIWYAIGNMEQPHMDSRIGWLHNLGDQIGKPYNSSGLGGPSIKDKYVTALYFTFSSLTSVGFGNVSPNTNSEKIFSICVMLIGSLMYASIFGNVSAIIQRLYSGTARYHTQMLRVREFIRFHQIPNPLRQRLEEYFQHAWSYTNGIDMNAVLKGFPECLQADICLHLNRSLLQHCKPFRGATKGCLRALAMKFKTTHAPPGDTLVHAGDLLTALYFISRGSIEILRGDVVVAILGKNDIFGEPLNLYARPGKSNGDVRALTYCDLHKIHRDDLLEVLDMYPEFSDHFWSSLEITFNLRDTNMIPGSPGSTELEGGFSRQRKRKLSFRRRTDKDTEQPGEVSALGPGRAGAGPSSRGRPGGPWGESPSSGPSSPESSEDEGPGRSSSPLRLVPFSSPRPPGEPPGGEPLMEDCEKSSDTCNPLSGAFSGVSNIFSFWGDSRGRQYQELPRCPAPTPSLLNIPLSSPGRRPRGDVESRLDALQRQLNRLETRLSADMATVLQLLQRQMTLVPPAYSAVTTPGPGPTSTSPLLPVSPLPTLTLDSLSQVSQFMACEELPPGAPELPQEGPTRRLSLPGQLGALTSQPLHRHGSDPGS
Chain of Histone deacetylase 9 (Homo sapiens) (Q9UKV0 whole entry): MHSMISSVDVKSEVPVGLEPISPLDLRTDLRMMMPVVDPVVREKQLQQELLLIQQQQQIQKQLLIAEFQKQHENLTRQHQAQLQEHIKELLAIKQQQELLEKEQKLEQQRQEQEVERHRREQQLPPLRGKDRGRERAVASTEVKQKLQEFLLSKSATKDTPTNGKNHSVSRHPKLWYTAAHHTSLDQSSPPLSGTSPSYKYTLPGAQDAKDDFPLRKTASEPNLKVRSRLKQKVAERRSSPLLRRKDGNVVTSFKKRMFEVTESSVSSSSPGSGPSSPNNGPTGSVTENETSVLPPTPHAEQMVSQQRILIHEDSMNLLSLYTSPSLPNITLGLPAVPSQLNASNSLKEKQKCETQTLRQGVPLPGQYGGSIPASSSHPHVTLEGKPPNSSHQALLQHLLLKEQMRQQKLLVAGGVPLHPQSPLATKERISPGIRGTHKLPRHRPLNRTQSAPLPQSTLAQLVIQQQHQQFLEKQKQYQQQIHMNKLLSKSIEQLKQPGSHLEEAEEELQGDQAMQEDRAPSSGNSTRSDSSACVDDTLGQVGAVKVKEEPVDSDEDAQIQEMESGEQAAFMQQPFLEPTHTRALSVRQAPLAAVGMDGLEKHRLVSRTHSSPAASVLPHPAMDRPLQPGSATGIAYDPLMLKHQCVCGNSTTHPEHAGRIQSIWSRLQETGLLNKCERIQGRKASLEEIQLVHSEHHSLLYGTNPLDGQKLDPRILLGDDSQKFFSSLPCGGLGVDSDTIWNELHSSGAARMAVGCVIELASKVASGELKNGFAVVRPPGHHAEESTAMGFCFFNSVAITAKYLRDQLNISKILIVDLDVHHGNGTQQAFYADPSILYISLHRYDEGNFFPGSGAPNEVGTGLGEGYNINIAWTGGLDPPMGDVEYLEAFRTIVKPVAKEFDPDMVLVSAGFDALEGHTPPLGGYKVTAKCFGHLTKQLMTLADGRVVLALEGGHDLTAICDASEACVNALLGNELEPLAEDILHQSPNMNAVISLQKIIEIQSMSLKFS

One may read the inhibition as the drop in the measured response relative to a control, in per cent. As usually defined, the IC50 is the midpoint of a concentration-inhibition curve. A lower IC50 goes with greater potency in that assay. On to `Cc1ccc(C(=O)N[C@@H](C(=O)Nc2ccc3c(c2)/C(=C/c2cnc[nH]2)C(=O)N3)c2ccccc2)c(=O)n1Cc1ccc(F)c(F)c1`, for which the Activity in series [1] is < 25%; in series [2], < 25%; in series [22], “Dose-Dependent Effect”; in series [23], “Dose-Dependent Effect”. Moreover, the inhibition was < 30% in series [3]; < 30% in series [4]; < 20% in [5]; < 30% in series [24]; < 30% in [25]; < 30% in series [26]. Also, the inhibition in series [27] was < 30%. For the same compound, in series [6], the inhibition at 10 µM worked out at 56%. The IC50 in series [7], in series [8], in series [9], in series [10], in series [11] and in series [12] was > 30 µM each time. Moreover, the IC50 in series [13] was > 30 µM; in series [14], > 30 µM; in [15] it was > 30 µM; in series [16], > 30 µM; in [17], 3 µM; in series [18] it was 4.7 µM. Also, the IC50 in series [19] and in series [20] was > 30 µM in each case. Moreover, in series [21], the Emax at 30 µM was 83%.
For the compound `O=C(O)[C@]1(Cc2cccc(Nc3nccs3)n2)CC[C@@H](Oc2cccc(Cl)c2F)CC1` [MK-5108], the Emax at 30 µM in series [28] is 40%; in [29] it was -59%. Further, the IC50 is > 30 µM in series [7]; > 30 µM in [8]; > 30 µM in series [9]; > 30 µM in series [10]; > 30 µM in [11]; 16.3 µM in series [12]. The IC50 was > 30 µM in series [13]; > 30 µM in series [14]; > 30 µM in [15]; 5.6 µM in series [16]; > 30 µM in series [17]; 0.6 µM in series [18]. The IC50 in [19] was 1.6 µM; in series [20], > 30 µM. In addition, the Emax in series [30] amounted to 82%; in [31], 70%.
